According to paper PMC8318231, “Rate-of-Kill (RoK) assays to triage large compound sets for Chagas disease drug discovery: Application to GSK Chagas Box” (PLoS Neglected Tropical Diseases, 2021):

Tested on: T. cruzi intracellular amastigotes in H9c2 cells
Experiment: Rate-of-Kill (RoK) high-content imaging assay, amastigotes per cell (AM/CELL) and curve descriptors
Format: cell-based, Trypanosoma cruzi
Parameters: key to ME_24h / ME_48h / ME_72h: % reduction in parasite burden (cidal response); t50pct_MCC50 / t50pct_Cmax: unit not given here
Conditions: for ME_24h: 24h; for ME_48h: 48h; for ME_72h: 72h; for t50%_Cmax / tlag_Cmax / t50pct_Cmax: at Cmax; for ME_24h (%): maximum effect at 24 h; for ME_24h (%) / ME_48h (%) / ME_72h (%): RoK assay; for ME_48h (%): maximum effect at 48 h; for ME_72h (%): maximum effect at 72 h
Outline: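 H9c2 cardiomyocytes infected with T. cruzi trypomastigotes (MOI 8, 18 h), then compounds tested at 5 μM single shot or 11-point 1/3 dilution from 50 μM. DRAQ5-stained nuclei imaged over a time course. Amastigotes per cell normalised to infected cells at 4 h (0%) and non-infected cells (100%).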

[1] = maximum percentage of parasite burden reduction reached by any concentration, 24 hours

Structure (SMILES) | ME_24h (figure 5) | ME_48h (figure 5) | ME_72h (figure 5) | MCC50 (RoK curve descriptor) [µM] | MCCE (RoK curve descriptor) [µM] | tlag_Cmax [h] | t50pct_Cmax (figure 5) | tlag_Cmax (figure 5) | t50%_MCC50 (at MCC50) [h] | t50pct_MCC50 (at MCC50, figure 5) | tlag_MCC50 (at MCC50, figure 5) | MCCE (figure 5) | ME_24h (%) | ME_48h (%) | ME_72h (%) | ME 24h (maximum effect at 24 hours, intracellular amastigotes) [1] [%] | AM/CELL NORM (Time 4, sheet figure 4 A) | AM/CELL NORM (Time 24, sheet figure 4 A) | AM/CELL NORM (Time 48, sheet figure 4 A) | AM/CELL NORM (Time 72, sheet figure 4 A) | further results
Cc1nccn1C1CCCN(C(=O)c2cc3c(F)cccc3s2)C1 (centres unmarked) [TCMDC-143498] | 32.6582 | 54.1455 | 68.2465 | 4.6 | 1.9 | 8.0 | 48 | 8 | 72.0 | 72 | 33.6 | 1.852 | 32.7 | 54.2 | 68.3 | 52.5921 |  |  |  |  | AM/CELL NORM (Time 4, figure 4 A): 21.9505; AM/CELL NORM (Time 24, figure 4 A): 50.5271; AM/CELL NORM (Time 48, figure 4 A): 69.4926; AM/CELL NORM (Time 72, figure 4 A): 61.0854; t50%_Cmax: 48.0 h; tlag_MCC50 (at MCC50): 24.0 h; MCC50 (figure 5, in µM): 13.7037
Cc1c(C#N)c([N+](=O)[O-])nn1Cc1cccc(Cl)c1Cl [TCMDC-143152] | 56.9761 | 166.798 | 160.217 | 1.9 | 0.6 | 4.0 | 24 | 4 | 48.0 | 48 | 4 | 0.6173 | 57.0 | 166.8 | 160.2 | 56.9761 | 5.197 | 56.9761 | 166.798 | 160.217 | t50%_Cmax: 24.0 h; tlag_MCC50 (at MCC50): 4.0 h; MCC50 (figure 5, in µM): 1.852
CC(C)c1cc(C(=O)N2CCCC(c3cc4ncccc4[nH]3)C2)on1 (centres unmarked) [TCMDC-143439] | 43.352 | 76.8723 | 68.3635 | 16.7 | 1.0 | 4.0 | 48 | 4 | 60.0 | 48 | 4 | 1.852 | 63.1 | 82.0 | 79.3 | 82.7741 | 3.622 | 43.352 | 76.8723 | 68.3635 | t50%_Cmax: 48.0 h; tlag_MCC50 (at MCC50): 14.0 h; MCC50 (figure 5, in µM): 16.6667
CCn1nccc1CN(C)C(=O)C=Cc1ccc(Cl)cc1 [TCMDC-143325] | -25.9716 | -135.889 | 23.6762 |  | 0.6 | 48.0 | 72 | 48 |  | 72 | 72 | 0.6173 | -26.0 | -135.9 | 23.7 | -25.9716 | 13.1334 | -25.9716 | -135.889 | 23.6762 | MCC50 (figure 5): 50 µM
O=C(c1cccc(Cl)c1Cl)N1CCn2c1nc(-c1ccncc1)cc2=O [TCMDC-143409] | -46.4941 | -253.426 | 11.7221 |  | 0.6 | 72.0 | 72 | 72 |  | 72 | 72 | 0.6173 | -46.5 | -253.4 | 11.7 | -46.4941 | 24.5196 | -46.4941 | -266.503 | -474.938 | MCC50 (figure 5): 50 µM
Cc1nnnn1-c1cccc(C(=O)N2CCC[C@@]3(C)c4ncncc4CCC23)c1 (some centres unmarked) [TCMDC-143148] | -108.08 | -0.7839 | 73.626 | 1.9 | 0.6 | 24.0 | 72 | 24 | 72.0 | 72 | 24 | 0.6173 | -108.1 | -0.8 | 73.6 | -108.08 | 4.786 | -133.046 | -35.529 | 70.8755 | t50%_Cmax: 72.0 h; tlag_MCC50 (at MCC50): 24.0 h; MCC50 (figure 5, in µM): 1.852
O=C(CSc1ccc(-c2ccccn2)nn1)Nc1ccc(Cl)cc1 [TCMDC-143552] | -18.5463 | -23.0005 | 85.8726 | 16.7 | 5.6 | 48.0 | 72 | 48 | 72.0 | 72 | 48 | 5.556 | -18.6 | -23.0 | 85.9 | -18.5463 | 7.37 | -202.586 | -606.539 | -482.613 | tlag_MCC50 (at MCC50): 48.0 h; MCC50 (figure 5, in µM): 16.6667
CCCc1nc2nc(N)nc(N)c2cc1CC [TCMDC-143606] | 41.1896 | 50.5934 | 54.3499 | 25.9 | 0.2 | 4.0 | 48 | 4 | 48.0 | 48 | 4 | 0.2058 | 41.2 | 50.6 | 54.4 | 50.9144 | 30.5298 | 50.9144 | 56.204 | 55.305 | MCC and MCCE values (in words): low MCC and MCCE values; ME (maximum effect) in RoK assay (in words): high ME value; tlag times: 4 h; t50%_Cmax: 60.0 h; tlag_MCC50 (at MCC50): 4.0 h; MCC50 (figure 5, in µM): 25.9259
O=C(CN(c1cccc(C(F)(F)F)c1)S(=O)(=O)c1ccc(Cl)cc1)NCc1ccc(F)c(F)c1 [TCMDC-143548] | -13.6646 | 17.5808 | 36.7488 |  | 0.6 | 24.0 | 72 | 24 |  | 72 | 72 | 0.6173 | -13.7 | 17.6 | 36.8 | -13.6646 | 27.6101 | -54.8458 | -14.5763 | 13.9259 | MCC50 (figure 5): 50 µM
CNc1cc(C)nc(C2CN(C(=O)c3n[nH]c4ccccc34)CCO2)c1 (centres unmarked) [TCMDC-143494] | 32.4456 | 71.1038 | 67.5793 | 50.0 | 1.9 | 4.0 | 48 | 4 | 48.0 | 48 | 4 | 1.852 | 32.5 | 71.1 | 67.6 | 32.4456 | 7.648 | 27.7451 | 71.1038 | 67.5793 | t50%_Cmax: 48.0 h; tlag_MCC50 (at MCC50): 4.0 h; MCC50 (figure 5): 50 µM
O=c1[nH]cnc2c([C@@H]3O[C@H](CO)[C@@H](O)[C@H]3O)n[nH]c12 [TCMDC-143083, Formycin B] | 45.1391 | 64.8809 | 83.4402 | 3.7 | 0.6 | 4.0 | 48 | 4 | 60.0 | 60 | 4 | 0.6173 | 45.1 | 64.9 | 83.4 |  | 22.2526 | 28.621 | 68.9466 | 69.7149 | ME (maximum effect) in RoK assay (in words): ME positive for all times; cidality in the RoK assay (in words): cidal; Emax (Trypanosoma cruzi, H9c2, maximum percentage of parasite burden reduction reached by any concentration, 24 hours, read-out: ME 24h (maximum effect at 24 hours, intracellular amastigotes)): 48.3%; t50%_Cmax: 48.0 h; tlag_MCC50 (at MCC50): 4.0 h; MCC50 (figure 5, in µM): 3.7037
